Test results as given in patent US11446282B2, “Methods of treating mixed dyslipidemia and hypertriglycertdemia” (Kowa Company, Ltd., priority 2017, dated 2022).

Test system: dyslipidemic patients with renal impairment
Test: Example 3 phase III 52-week trial: cholesterol in lipoprotein subclasses by HPLC
Format: in vivo, human
Conditions: for Small LDL-C Week 52 (LOCF) / VLDL-C % Change from baseline at Week 52 (LOCF) / VLDL-C Week 52 (LOCF) / Very large HDL-C % Change from baseline at Week 52 (LOCF) / Very large HDL-C Week 52 (LOCF) / Very small HDL-C % Change from baseline at Week 52 (LOCF) / Very small HDL-C Week 52 (LOCF) / Very small LDL-C % Change from baseline at Week 52 (LOCF) / Very small LDL-C Week 52 (LOCF) / CM-C % Change from baseline at Week 52 (LOCF) / CM-C Week 52 (LOCF) / Large HDL-C % Change from baseline at Week 52 (LOCF) / Large HDL-C Week 52 (LOCF) / Large LDL-C % Change from baseline at Week 52 (LOCF) / Large LDL-C Week 52 (LOCF) / Medium HDL-C % Change from baseline at Week 52 (LOCF) / Medium HDL-C Week 52 (LOCF) / Medium LDL-C % Change from baseline at Week 52 (LOCF) / Medium LDL-C Week 52 (LOCF) / Small HDL-C % Change from baseline at Week 52 (LOCF) / Small HDL-C Week 52 (LOCF) / Small LDL-C % Change from baseline at Week 52 (LOCF): 0.2 (0.4) mg/day
Description: This was a multicenter, single-arm, open-label, phase III trial. The inclusion criteria were as follows: (1) patients with dyslipidemia aged >20 years at the time of informed consent; (2) men and postmenopausal women; (3) fasting serum TG≥1.70 mmol/L (150 mg/dL) at two consecutive measurements during screening; and (4) patients who followed dietary and physical exercise guidance for >12 weeks before enrollment.
The major exclusion criteria were as follows: (1) patients with fasting serum TG≥5.65 mmol/L (500 mg/dL) during screening; (2) patients with poorly controlled diabetes mellitus (hemoglobin A1c [HbA1c]≥10.5%); (3) patients with concurrent poorly controlled thyroid disease; (4) men with serum creatinine ≥2.5 mg/dL and women with serum creatinine ≥2.0 mg/dL during screening who were already on statin therapy; (5) patients with eGFR<45 mL/min/1.73 m^2 during screening who were already on statin therapy; (6) patients with CK>5ULN (270 IU/L for men, 150 IU/L for women) during screening who were already on statin therapy; (7) patients with serious liver disease (cirrhosis Child-Pugh Class B or higher); (8) patients with gallstones or serious biliary tract disease; (9) patients who had suffered an acute myocardial infarction or stroke within three months before informed consent; and (10) patients with New York Heart Association class III or IV heart failure.
During the screening period (8 weeks prior to treatment initiation), tests were performed twice to determine patient eligibility. Thereafter, eligible patients orally received pemafibrate 0.2 mg/day (twice daily) for 52 weeks. From week 12 of the treatment period onwards, the investigators were instructed that the dose could be increased from 0.2 mg/day to 0.4 mg/day (twice daily) if there was an inadequate response to the initial dose based on fasting serum TG levels ≥1.70 mmol/L (150 mg/dL). Fasting blood and urine samples were collected at each visit. Blood and urine sample in patients with hemodialysis were collected just before dialysis. LDL-C levels were measured using the direct method. […]
The primary efficacy endpoint was the percent change in fasting serum TG from baseline to the last evaluation point. The primary safety endpoints were the incidence of an AE or ADR occurring after drug administration during the study. Secondary efficacy endpoints included percent changes in lipid variables and changes in inflammation variables at week 52 [using the last-observation-carried-forward (LOCF)]. Secondary safety endpoints included changes in the levels of aspartate aminotransferase (AST), ALT, -GT, ALP, serum creatinine, eGFR, and CK at week 52. Each baseline value was defined as (1) the mean of the corresponding values in the first and second tests at the screening examination and at week 0 of the treatment period for fasting serum TG, HDL-C, total cholesterol (TC), LDL-C, and non-HDL-C; and (2) the value at week 0 of the treatment period for the other secondary variables.
The numbers of patients with AEs and ADRs and the incidences of AEs and ADRs were calculated in the analysis of primary safety endpoints. For the secondary efficacy endpoints, one-sample t-tests or Wilcoxon signed-rank tests [for high-sensitivity C-reactive protein (hsCRP) and IL-1] were performed. The secondary safety endpoints were analyzed with Wilcoxon signed-rank tests. A two-sided significance level of 0.05 was used. SAS v. 9.3 (SAS Institute Inc., Cary, N.C., USA) was used for these analyses. Where indicated, the data are expressed as means±standard deviation (SD).

[1] = lowest eGFR group compared with other groups

## CC[C@@H](Oc1cccc(CN(CCCOc2ccc(OC)cc2)c2nc3ccccc3o2)c1)C(=O)O [Pemafibrate, (2R)-2-[3-({1,3-benzoxazol-2-yl[3-(4-methoxyphenoxy)propyl]amino}methyl)phenoxy]butanoic acid]
eGFR G2 (≥60 and <90)
  Small LDL-C Week 52 (LOCF): 0.522 mmol/L
  VLDL-C % Change from baseline at Week 52 (LOCF): −25.3%
  VLDL-C Week 52 (LOCF): 0.834 mmol/L
  Very large HDL-C % Change from baseline at Week 52 (LOCF): 4.1%
  Very large HDL-C Week 52 (LOCF): 0.048 mmol/L
  Very small HDL-C % Change from baseline at Week 52 (LOCF): 30.9%
  Very small HDL-C Week 52 (LOCF): 0.181 mmol/L
  Very small LDL-C % Change from baseline at Week 52 (LOCF): −9.7%
  Very small LDL-C Week 52 (LOCF): 0.211 mmol/L
eGFR G3a-G3b (≥30 and <60)
  CM-C % Change from baseline at Week 52 (LOCF): −67.7%
  CM-C Week 52 (LOCF): 0.038 mmol/L
  Large HDL-C % Change from baseline at Week 52 (LOCF): −4.9%
  Large HDL-C Week 52 (LOCF): 0.124 mmol/L
  Large LDL-C % Change from baseline at Week 52 (LOCF): 59.1%
  Large LDL-C Week 52 (LOCF): 0.720 mmol/L
  Medium HDL-C % Change from baseline at Week 52 (LOCF): 20.6%
  Medium HDL-C Week 52 (LOCF): 0.447 mmol/L
  Medium LDL-C % Change from baseline at Week 52 (LOCF): 18.9%
  Medium LDL-C Week 52 (LOCF): 1.127 mmol/L
  Small HDL-C % Change from baseline at Week 52 (LOCF): 24.6%
  Small HDL-C Week 52 (LOCF): 0.467 mmol/L
  Small LDL-C % Change from baseline at Week 52 (LOCF): −18.9%
  Small LDL-C Week 52 (LOCF): 0.501 mmol/L
  VLDL-C % Change from baseline at Week 52 (LOCF): −22.9%
  VLDL-C Week 52 (LOCF): 0.892 mmol/L
  Very large HDL-C % Change from baseline at Week 52 (LOCF): 5.9%
  Very large HDL-C Week 52 (LOCF): 0.051 mmol/L
  Very small HDL-C % Change from baseline at Week 52 (LOCF): 19.7%
  Very small HDL-C Week 52 (LOCF): 0.180 mmol/L
  Very small LDL-C % Change from baseline at Week 52 (LOCF): −15.8%
  Very small LDL-C Week 52 (LOCF): 0.207 mmol/L
eGFR G4-G5 (<30)
  CM-C % Change from baseline at Week 52 (LOCF): −79.4%
  CM-C Week 52 (LOCF): 0.039 mmol/L
  Large HDL-C % Change from baseline at Week 52 (LOCF): 5.2%
  Large HDL-C Week 52 (LOCF): 0.096 mmol/L
  Large LDL-C % Change from baseline at Week 52 (LOCF): 39.9%
  Large LDL-C Week 52 (LOCF): 0.689 mmol/L
  Medium HDL-C % Change from baseline at Week 52 (LOCF): 53.2%
  Medium HDL-C Week 52 (LOCF): 0.336 mmol/L
  Medium LDL-C % Change from baseline at Week 52 (LOCF): −2.8%
  Medium LDL-C Week 52 (LOCF): 0.920 mmol/L
  Small HDL-C % Change from baseline at Week 52 (LOCF): 39.1%
  Small HDL-C Week 52 (LOCF): 0.395 mmol/L
  Small LDL-C % Change from baseline at Week 52 (LOCF): −38.6%
  Small LDL-C Week 52 (LOCF): 0.381 mmol/L
  VLDL-C % Change from baseline at Week 52 (LOCF): −28.7%
  VLDL-C Week 52 (LOCF): 1.076 mmol/L
  Very large HDL-C % Change from baseline at Week 52 (LOCF): 17.1%
  Very large HDL-C Week 52 (LOCF): 0.044 mmol/L
  Very small HDL-C % Change from baseline at Week 52 (LOCF): 23.5%
  Very small HDL-C Week 52 (LOCF): 0.155 mmol/L
  Very small LDL-C % Change from baseline at Week 52 (LOCF): −33.4%
  Very small LDL-C Week 52 (LOCF): 0.158 mmol/L
Lowest eGFR group
  high-density lipoprotein cholesterol change (observation): increase
[1]
  VLDL-C change (observation): greatest reduction
  chylomicron (CM-C) change (observation): greatest reduction
  small low-density lipoprotein cholesterol change (observation): greatest reduction
